Tests used:
[1] = Acid induced degradation at pH 2.5, gas chromatography; type: physicochemical
Protocol: Briefly, 100 μl of serum and 2 ml of the stock solution were combined in screw-capped glass tubes. The tubes were capped and heated at 100 C for 60 min. The tubes were allowed to cool down to the room temperature and were extracted twice with 1 ml hexane. The combined hexane solution was evaporated under vacuum (Scan Speed 32 centrifuge) and the residue reconstituted to the volume of 50 μl with of hexane, transferred to GC vials, and capped under nitrogen.
Temperature program, initial: 130 C with a 4 min hold; ramp: 4 C/min to 280 C with a 2 min hold. Carrier gas was He, with a linear velocity of 30 cm/s. Fatty acid analysis was performed by injection of 1 μl of each sample at a split ratio of 50:1. The FID and the Injection port temperature was 300 C. The sampling frequency was 40 Hz. Fatty acids identification was performed with SUPELCO 37 COMPONENT FAME MIX (Supelco, USA). DHA concentrations were calculated on the basis of the standard concentrations. Analytical standard of DHA and PTC (Sigma, USA) were used in the assay.

[2] = tested on: individuals with a moderate hyperlipidemia; assay: Clinical Trial DHA-Lycopene, 4 weeks; type: in vivo, human; details: for LDL / Triglycerides: medians, DHA 250 mg and/or lycopene 7 mg once a day
Protocol: To validate this, a clinical trial was undertaken. 32 individuals aged 40-65 years old with a moderate hyperlipidemia (serum triglycerides, TG, >150 mg/dl and LDL from 130 to 160 mg/dl). They were randomised and split in four groups of 8: • The first was supplemented with a 250 mg of conventional formulation of DHA without lycopene (CF-DHA), • the second with 7 mg of lycopene, • the third with 250 mg of DHA and 7 mg of lycopene co-ingested at the same time but as two separate products, and • the fourth group received 7 mg lycopene formulated with 250 mg of DHA (LF-DHA). All products were taken once a day with the main meal. The duration of the trial was for 4 weeks.

[3] = DHA preparation without lycopene
[4] = DHA preparation with lycopene 1 mg per 1 g of DHA

| Compound | GC peak Area, %, Baseline [1, 3] | GC peak Area, Baseline [1, 3] | GC peak Area, %, After 2 hours at pH 2.5 [1, 4] | GC peak Area, %, Baseline [1, 4] | GC peak Area, After 2 hours at pH 2.5 [1, 4] | GC peak Area, Baseline [1, 4] | GC peak Area, %, After 2 hours at pH 2.5 [1, 3] | GC peak Area, After 2 hours at pH 2.5 [1, 3] | LDL ([2]; 0 w) | Triglycerides ([2]; 0 w) | LDL ([2]; 4 w) | Triglycerides ([2]; 4 w) | Reduction of medians of serum TG concentration ([2]; 4 weeks) | Reduction in LDL ([2]; 4 weeks, p<0.05) |
| --- | --- | --- | --- | --- | --- | --- | --- | --- | --- | --- | --- | --- | --- | --- |
| CCCCCCCCCCCCCCCCCCCC(=O)O [Arachidic] | 0.10% | 1,032 |  |  |  |  |  |  |  |  |  |  |  |  |
| CCCCC/C=C\C/C=C\C/C=C\C/C=C\CCCC(=O)O [Arachidonic] | 0.83% | 8,907 | 0.81% | 0.82% | 8,565 | 7,859 | 0.79% | 5323 |  |  |  |  |  |  |
| CCCCCCCCCCCCCCCCCCCCCC(=O)O [Behenic] | 0.10% | 1,096 |  |  |  |  |  |  |  |  |  |  |  |  |
| CCCCCC(=O)O [Caproic] | 1.31% | 13,975 |  |  |  |  |  |  |  |  |  |  |  |  |
| CC/C=C\C/C=C\C/C=C\C/C=C\C/C=C\C/C=C\CCC(=O)O [DHA, Doxosahexaenoic Acid] |  |  |  |  |  |  |  |  | 155.5 mg/dL | 191.5 mg/dL | 153.5 mg/dL | 185.5 mg/dL | 27.5 mg/dL | 19.5 mg/dL |
| CCCCCCCC/C=C/CCCCCCCC(=O)O [Elaidic] | 0.20% | 2,108 | 0.21% | 0.26% | 2,205 | 2,537 | 0.24% | 1629 |  |  |  |  |  |  |
| CCCCCCCCCCCC(=O)O [Lauric] | 0.16% | 1,718 | 0.15% | 0.14% | 1,605 | 1,354 |  |  |  |  |  |  |  |  |
| CCCCCCCCCCCCCCCCCCCCCCCC(=O)O [Lignoceric] | 0.14% | 1,518 | 0.17% | 0.17% | 1,775 | 1,613 | 0.17% | 1162 |  |  |  |  |  |  |
| CCCCC/C=C\C/C=C\CCCCCCCC(=O)O [Linoleic] | 0.89% | 9,494 | 0.98% | 1.28% | 10,395 | 12,328 | 1.25% | 8396 |  |  |  |  |  |  |
| CCCCCCCCCCCCCC(=O)O [Myristic] | 6.23% | 73,096 | 6.56% | 6.42% | 69,816 | 61,814 | 6.42% | 43,118 |  |  |  |  |  |  |
| CCCC/C=C\CCCCCCCC(=O)O [Myristoleic] | 0.18% | 1,934 | 0.17% | 0.17% | 1,789 | 1,662 | 0.18% | 1,197 |  |  |  |  |  |  |
| CCCCCCCCCCCCCCCC(=O)O [Palmitic] | 18.45% | 197,526 | 17.52% | 17.82% | 186,438 | 171,664 | 17.66% | 118,649 |  |  |  |  |  |  |
| CCCCCC/C=C\CCCCCCCC(=O)O [Palmitoleic] | 0.11% | 1,219 | 0.16% | 0.17% | 1,710 | 1,598 | 0.19% | 1,278 |  |  |  |  |  |  |
| CCCCCCCCCCCCCCC(=O)O [Pentadecanoic] | 0.29% | 3,120 | 0.27% | 0.26% | 2,843 | 2,511 | 0.26% | 1,716 |  |  |  |  |  |  |
| CCCCCCCCCCCCCCCCCC(=O)O [Stearic] | 0.66% | 7,051 | 0.64% | 0.69% | 6,811 | 6,673 | 0.68% | 4597 |  |  |  |  |  |  |
| CCC=CCC=CCC=CCC=CCC=CC/C=C\CCC(=O)O [cis-4,7,10,13,16,19-Docosahexaenoic] | 42.63% | 456,572 | 43.60% | 42.55% | 464,051 | 409,974 | 43.54% | 292,485 |  |  |  |  |  |  |
| CCC=CCC=CCC=CCC=CC/C=C\CCCC(=O)O [cis-5,8,11,14,17-eicosapentaenoic] | 1.07% | 11,447 | 1.01% | 1.03% | 10,759 | 9,937 | 0.99% | 6679 |  |  |  |  |  |  |
| CCCCC/C=C\C/C=C\C/C=C\CCCCC(=O)O [gamma-Linolenic] | 0.28% | 3,030 | 0.26% | 0.27% | 2,767 | 2,627 | 0.28% | 1,851 |  |  |  |  |  |  |
| Linole/alpha-linilenic | 6.53% | 69,917 | 6.42% | 6.63% | 68,330 | 63,846 | 6.72% | 45112 |  |  |  |  |  |  |
| cis-8,11,14,17-eicosapentaenoic | 0.47% | 5,002 | 0.55% | 0.46% | 5,889 | 4,391 | 0.42% | 2800 |  |  |  |  |  |  |
